Like-named read-outs stand apart in the source and are kept apart here.
Tested on: THP1 cells
Assay type: cell-based, human
Conditions: PF-06650833 vs DMSO in THP1 cells

CC[C@@H]1[C@H](F)C(=O)N[C@@H]1COc1nccc2cc(C(N)=O)c(OC)cc12 [PF-06650833, Zimlovisertib]
Log(FC) (gene ACVR1C): −0.6723
Log(FC) (gene ADPGK-AS1): −0.6683
Log(FC) (gene ALDH1A3): −0.6705
Log(FC) (gene APOBR): −0.6497
Log(FC) (gene APOC1): −0.67
Log(FC) (gene AQP3): −0.6432
Log(FC) (gene ARHGAP25): −0.5895
Log(FC) (gene ARRDC3-AS1): −0.5996
Log(FC) (gene ASGR2): −0.631
Log(FC) (gene BMP8B): −0.6206
Log(FC) (gene BPI): −0.6416
Log(FC) (gene C1QL4): −0.5987
Log(FC) (gene C1orf226): −0.604
Log(FC) (gene C1orf228): −0.634
Log(FC) (gene C3): −0.6607
Log(FC) (gene C19orf35): −0.675
Log(FC) (gene C19orf59): −0.6476
Log(FC) (gene C20orf197): −0.6914
Log(FC) (gene CACNA2D3): −0.6049
Log(FC) (gene CALHM2): −0.6575
Log(FC) (gene CCDC78): −0.6022
Log(FC) (gene CCL23): −0.6739
Log(FC) (gene CD300LB): −0.5972
Log(FC) (gene CENPH): −0.6701
Log(FC) (gene DGKG): −0.6202
Log(FC) (gene EVI2B): −0.6362
Log(FC) (gene FAM111B): −0.6646
Log(FC) (gene FAM161B): −0.6003
Log(FC) (gene FAS): −0.6791
Log(FC) (gene FAT4): −0.6913
Log(FC) (gene FMO5): −0.639
Log(FC) (gene FOS): −0.5974
Log(FC) (gene FOSL1): −0.6175
Log(FC) (gene GAPT): −0.6025
Log(FC) (gene GIPC3): −0.6076
Log(FC) (gene GNG12): −0.6632
Log(FC) (gene GPR35): −0.6621
Log(FC) (gene HSPA1L): −0.6007
Log(FC) (gene HYDIN2): −0.6113
Log(FC) (gene IL1R1): −0.6855
Log(FC) (gene IL16): −0.667
Log(FC) (gene IQGAP2): −0.5919
Log(FC) (gene KCNA3): −0.6759
Log(FC) (gene KIF21B): −0.6912
Log(FC) (gene KLHL30): −0.6632
Log(FC) (gene KREMEN2): −0.6258
Log(FC) (gene LDOC1): −0.6494
Log(FC) (gene LHFPL2): −0.6019
Log(FC) (gene LINC01094): −0.6762
Log(FC) (gene LOC81691): −0.6095
Log(FC) (gene LOC339862): −0.6552
Log(FC) (gene LOC100093631): −0.631
Log(FC) (gene LOC100507642): −0.6508
Log(FC) (gene LOC101927841): −0.6312
Log(FC) (gene LOC101929119): −0.6138
Log(FC) (gene LOC101929545): −0.5904
Log(FC) (gene LOC102723883): −0.5967
Log(FC) (gene MPEG1): −0.6879
Log(FC) (gene MPO): −0.6316
Log(FC) (gene MPZ): −0.5945
Log(FC) (gene MTMR11): −0.6705
Log(FC) (gene MUC19): −0.6358
Log(FC) (gene NCALD): −0.6
Log(FC) (gene NHLRC3): −0.66
Log(FC) (gene NHSL2): −0.639
Log(FC) (gene NMNAT2): −0.6786
Log(FC) (gene PAX8): −0.674
Log(FC) (gene PCED1B-AS1): −0.6355
Log(FC) (gene PDCD4): −0.6069
Log(FC) (gene PODNL1): −0.6661
Log(FC) (gene PRTN3): −0.6776
Log(FC) (gene PSTPIP1): −0.6238
Log(FC) (gene RGS3): −0.6231
Log(FC) (gene RPSAP9): −0.6104
Log(FC) (gene RSPO1): −0.6269
Log(FC) (gene S1PR3): −0.6476
Log(FC) (gene S1PR5): −0.6503
Log(FC) (gene SCIMP): −0.6308
Log(FC) (gene SERPINA1): −0.615
Log(FC) (gene SETBP1): −0.6709
Log(FC) (gene SIM1): −0.6107
Log(FC) (gene SLC2A3): −0.6056
Log(FC) (gene SLC6A11): −0.6327
Log(FC) (gene SLC9A7): −0.6539
Log(FC) (gene SNORA73A): −0.6228
Log(FC) (gene SNX10): −0.6217
Log(FC) (gene SWT1): −0.6012
Log(FC) (gene SYN3): −0.6041
Log(FC) (gene SYTL1): −0.5922
Log(FC) (gene TACC2): −0.6004
Log(FC) (gene THBS4): −0.6785
Log(FC) (gene TLR1): −0.6365
Log(FC) (gene TMEM45A): −0.5913
Log(FC) (gene TMEM238): −0.6139
Log(FC) (gene TNFSF10): −0.6794
Log(FC) (gene TNS1): −0.6915
Log(FC) (gene TREM1): −0.6699
Log(FC) (gene TRIM72): −0.6733
Log(FC) (gene ZNF630): −0.6307
Log(FC) (gene ZNF836): −0.606
